Positions count from the first letter of the chain named.
Assays:
Test in all cases: 1H-15N HSQC NMR titration (CSP fitting)
Assay type in all cases: binding
DC-SIGN CRD E358A = biological target: T1, DC-SIGN CRD E358A (Homo sapiens, UniProt Q9NNX6, E358A)
T1 construct: acids 253-404 of DC-SIGN; His-tag (N); made in house
T1 sequence (Q9NNX6 253-404 E358A): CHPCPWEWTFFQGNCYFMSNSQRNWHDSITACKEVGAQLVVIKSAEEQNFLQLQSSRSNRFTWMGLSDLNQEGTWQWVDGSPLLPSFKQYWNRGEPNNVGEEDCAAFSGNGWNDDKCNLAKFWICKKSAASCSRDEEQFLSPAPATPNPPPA
Procedure: (§1) 1H-15N HSQC NMR. 1H-15N HSQC NMR spectra were collected with 256 increments in the nitrogen and 24 scans per increment and 2048 points in the direct dimension. The relaxation delay d1 was set to 1.0 s. The W5 WATERGATE pulse sequence was used for solvent suppression.3, 4 Experiments were performed at a CRD concentration of 200 μM in 20 mM MES, 40 mM NaCl, 10 mM CaCl2 (pH 6.0) supplemented with 10% D 2O and, if applicable, varying concentrations of ligands. Samples of apo DC -SIGN CRD were prepared as described for 1H-13C HSQC NMR experiments. A previously published resonance assignment of DC-SIGN CRD was transferred to the nearest neighbor in a reference spectrum recorded without ligand.5 Unassigned, overlapping or disappearing peaks were not assigned.
(§2) CSPs induced by mutations or ligands were calculated as previously described according to […]
(§3) The empirical weighing factor a was set to 0.15 for all calculations.
(§4) Dissociation constants (K Ds) were determined in titration experiments at five ligand concentratio ns […]
(§5) in the fast exchange regime were used for the fitting procedure via equation 4 in a global two - […]
(§6) with CSP max corresponding to the CSP values upon saturation and the bound protein fraction p b […]
(§7) CHESPA was performed as previously described .7 The chemical shift vector between apo and holo wildtype DC -SIGN CRD was used as reference perturbation to calculate the vector product to […]

DC-SIGN CRD F313A = biological target: T2, DC-SIGN CRD F313A (Homo sapiens, UniProt Q9NNX6, F313A)
T2 construct: acids 253-404 of DC-SIGN; His-tag (N); made in house
T2 sequence (Q9NNX6 253-404 F313A): T1 sequence (Q9NNX6 253-404 E358A) with F61A, A106E
Procedure: as §1, §2, §3, §4, §5, §6, §7

DC-SIGN CRD F359L = biological target: T3, DC-SIGN CRD F359L (Homo sapiens, UniProt Q9NNX6, F359L)
T3 construct: acids 253-404 of DC-SIGN; His-tag (N); made in house
T3 sequence (Q9NNX6 253-404 F359L): T1 sequence (Q9NNX6 253-404 E358A) with A106E, F107L
Procedure: as §1, §2, §3, §4, §5, §6, §7

DC-SIGN CRD I376V = biological target: T4, DC-SIGN CRD I376V (Homo sapiens, UniProt Q9NNX6, I376V)
T4 construct: acids 253-404 of DC-SIGN; His-tag (N); made in house
T4 sequence (Q9NNX6 253-404 I376V limits assumed): T1 sequence (Q9NNX6 253-404 E358A) with A106E, I124V
Procedure: as §1, §2, §3, §4, §5, §6, §7

DC-SIGN CRD M270F = biological target: T5, DC-SIGN CRD M270F (Homo sapiens, UniProt Q9NNX6, M270F)
T5 construct: acids 253-404 of DC-SIGN; His-tag (N); made in house
T5 sequence (Q9NNX6 253-404 M270F): T1 sequence (Q9NNX6 253-404 E358A) with M18F, A106E
Procedure: as §1, §2, §3, §4, §5, §6, §7

DC-SIGN CRD Q323A = biological target: T6, DC-SIGN CRD Q323A (Homo sapiens, UniProt Q9NNX6, Q323A)
T6 construct: acids 253-404 of DC-SIGN; His-tag (N); made in house
T6 sequence (Q9NNX6 253-404 Q323A limits assumed): T1 sequence (Q9NNX6 253-404 E358A) with Q71A, A106E
Procedure: as §1, §2, §3, §4, §5, §6, §7

DC-SIGN CRD T314A = biological target: T7, DC-SIGN CRD T314A (Homo sapiens, UniProt Q9NNX6, T314A)
T7 construct: acids 253-404 of DC-SIGN; His-tag (N); made in house
T7 sequence (Q9NNX6 253-404 T314A): T1 sequence (Q9NNX6 253-404 E358A) with T62A, A106E
Procedure: as §1, §2, §3, §4, §5, §6, §7

DC-SIGN CRD W364F = biological target: T8, DC-SIGN CRD W364F (Homo sapiens, UniProt Q9NNX6, W364F)
T8 construct: acids 253-404 of DC-SIGN; His-tag (N); made in house
T8 sequence (Q9NNX6 253-404 W364F): T1 sequence (Q9NNX6 253-404 E358A) with A106E, W112F
Procedure: as §1, §2, §3, §4, §5, §6, §7

DC-SIGN CRD wildtype = biological target: T9, DC-SIGN CRD wildtype (Homo sapiens, UniProt Q9NNX6)
T9 construct: acids 253-404 of DC-SIGN; His-tag (N); made in house
T9 sequence (Q9NNX6 253-404): T1 sequence (Q9NNX6 253-404 E358A) with A106E
Procedure: as §1, §2, §3, §4, §5, §6, §7

Compound: OC[C@H]1OC(O)[C@@H](O)[C@@H](O)[C@@H]1O (stereo partly drawn) [mannose]
- Kd (DC-SIGN CRD E358A): 51.1 ± 4.9 mM
- Kd (DC-SIGN CRD F313A): 6 ± 0.5 mM
- Kd (DC-SIGN CRD F359L): 8.2 ± 0.8 mM
- Kd (DC-SIGN CRD I376V): 3.4 ± 0.2 mM
- Kd (DC-SIGN CRD M270F): 2.9 ± 0.4 mM
- Kd (DC-SIGN CRD Q323A): 3.5 ± 0.2 mM
- Kd (DC-SIGN CRD T314A): 3.9 ± 0.1 mM
- Kd (DC-SIGN CRD W364F): 5 ± 0.9 mM
- Kd (DC-SIGN CRD wildtype): 3.3 ± 0.3 mM

Reference: PMC12933331, “A Cryptic Pocket Allosterically Modulates Oligosaccharide Binding to DC-SIGN” (JACS Au, 2026)
